In patent US20240148821A1, “PHARMACEUTICAL USE OF CYCLIC PEPTIDE COMPOUND” (CHUGAI SEIYAKU KABUSHIKI KAISHA, priority 2021, published 2024):
Numbered stars: 1 amine (or outer) side, 2 acyl side, 3 side chain; on linkers, the order of the positions; unused ones are H or OH. Bridge positions count the residues as written; N and C are the ends. Square brackets hold non-standard residues; d marks the D form. Peptide text beside a SMILES is read from it. * marks the point of attachment. hPhe(3-Cl-4-CF3) = N[C@@H](CCc1ccc(C(F)(F)F)c(Cl)c1)C(=O)O; hPhe(3-F,4-CF3) = N[C@@H](CCc1ccc(C(F)(F)F)c(F)c1)C(=O)O; NEtPhe(4-CF3) = CCN[C@@H](Cc1ccc(C(F)(F)F)cc1)C(=O)O; NMePhe(4-CF3) = CN[C@@H](Cc1ccc(C(F)(F)F)cc1)C(=O)O; hPhe(4-CF3) = N[C@@H](CCc1ccc(C(F)(F)F)cc1)C(=O)O; NMePhe(4-Cl) = CN[C@@H](Cc1ccc(Cl)cc1)C(=O)O; NEtPhe(2-Cl) = CCN[C@@H](Cc1ccccc1Cl)C(=O)O; NMePhe(4-Me) = CN[C@@H](Cc1ccc(C)cc1)C(=O)O; NMedβ3hAla = C[C@H](CC(=O)[*:2])N(C)[*:1]; NMeAla(cPent) = CN[C@@H](CC1CCCC1)C(=O)O; NMeGly(cPent) = CN[C@H](C(=O)O)C1CCCC1; NMeCha = CN[C@@H](CC1CCCCC1)C(=O)O; Hyp = O=C(O)[C@@H]1C[C@@H](O)CN1; NMeChg = CN[C@H](C(=O)O)C1CCCCC1; NMeI = CC[C@H](C)[C@H](NC)C(=O)O; d(β3hL) = CC(C)C[C@@H](N)CC(=O)O; NMeD = CN[C@@H](CC(=O)O)C(=O)O; NMeL = CN[C@@H](CC(C)C)C(=O)O; NMeNle = CCCC[C@H](NC)C(=O)O; NMeV = CN[C@H](C(=O)O)C(C)C; d(β3hA) = C[C@@H](N)CC(=O)O; NMeAbu = CC[C@H](NC)C(=O)O; NMeS = CN[C@@H](CO)C(=O)O; Morpholide = C1CN(*)CCO1; NMeA = CN[C@@H](C)C(=O)O; NMeAib = CNC(C)(C)C(=O)O; Piperidide = C1CCN(*)CC1; Pyrrolidide = C1CCN(*)C1; dNMeA = CN[C@H](C)C(=O)O; Ac5c = NC1(C(=O)O)CCCC1; Aze = O=C(O)[C@@H]1CCN1; Ac4c = NC1(C(=O)O)CCC1; CH2CMe2OH = CC(C)(O)C*; NBuGly = CCCCNCC(=O)O; Aib = CC(C)(N)C(=O)O; Isopentyl = CC(C)CC*; Sar = CNCC(=O)O

These compounds were tested against protein-protein interaction between Kras and SOS1 (biotin-tagged human Kras loaded with GDP, His-tagged human SOS1) (Homo sapiens (Human), UniProt P01116, G12D) (assay: Protein-protein interaction inhibition between Kras and SOS1 (KrasG12D-SOS PPI) using AlphaScreen). Settings: AlphaScreen; biotin-tagged human Kras loaded with GDP, His-tagged human SOS1; read-out: KRAS G12D-SOS PPI IC50.
Format: biochemical

In order of falling IC50:
1. CC[C@H](C)[C@@H]1NC(=O)[C@H](C)N(C)C(=O)C[C@@H](C(=O)N2CCOCC2)N(C)C(=O)[C@H](C(C)C)N(C)C(=O)C2(CCCC2)NC(=O)[C@H](Cc2ccccc2Cl)N(CC)C(=O)[C@H](CCc2ccc(C(F)(F)F)c(Cl)c2)NC(=O)CN(C)C(=O)[C@H](CC2CCCCC2)N(C)C(=O)CN(C)C(=O)CN(C)C1=O [Compound 2167] ([NMeA]I[Sar][Sar][NMeCha][Sar][hPhe(3-Cl-4-CF3)][NEtPhe(2-Cl)][Ac5c][NMeV][NMeD]-Morpholide; lactam N-11)  380 nM
2. CC[C@H](C)[C@@H]1NC(=O)[C@H](C(C)C)N(C)C(=O)C[C@@H](CC(C)C)NC(=O)[C@H](CC(C)C)N(C)C(=O)C2(CCCC2)NC(=O)[C@H](CC(C)C)N(C)C(=O)[C@H](CCc2ccc(C(F)(F)F)cc2)NC(=O)CN(C)C(=O)[C@H](Cc2ccc(Cl)cc2)N(C)C(=O)CN(C)C(=O)CN(C)C1=O [Compound 113] (cyclo([Ac5c][NMeL][d(β3hL)][NMeV]I[Sar][Sar][NMePhe(4-Cl)][Sar][hPhe(4-CF3)][NMeL]))  280 nM
3. CCCCN1CC(=O)N(C)CC(=O)N(C)[C@@H](COCCC(C)C)C(=O)N(C)CC(=O)N[C@@H](CCc2ccc(C(F)(F)F)c(Cl)c2)C(=O)N(C)[C@@H](COCC(C)(C)O)C(=O)NC(C)(C)C(=O)N(C)[C@@H](C(C)C)C(=O)N[C@H](C)CC(=O)N(C)[C@@H](CC(C)C)C(=O)N[C@@H]([C@@H](C)CC)C1=O [Compound 1505] (cyclo([Aib][NMeV][d(β3hA)][NMeL]I[NBuGly][Sar][NMeS](Isopentyl)[Sar][hPhe(3-Cl-4-CF3)][NMeS](CH2CMe2OH)))  220 nM
4. CC[C@H](C)[C@@H]1NC(=O)[C@H](CC(C)C)N(C)C(=O)C[C@@H](C)NC(=O)[C@H](C2CCCC2)N(C)C(=O)C2(CCCC2)NC(=O)[C@@H]2CCCN2C(=O)[C@H](CCc2ccc(C(F)(F)F)c(Cl)c2)NC(=O)[C@@H](C)N(C)C(=O)[C@H](Cc2ccc(C(F)(F)F)cc2)N(C)C(=O)[C@@H]2CCN2C(=O)[C@H](C)N(C)C1=O [Compound 1482] (cyclo([Ac5c][NMeGly(cPent)][d(β3hA)][NMeL]I[NMeA][Aze][NMePhe(4-CF3)][dNMeA][hPhe(3-Cl-4-CF3)]P))  88 nM
5. CCO[C@@H]1C[C@H]2C(=O)NC3(CCC3)C(=O)N(C)[C@@H](C3CCCCC3)C(=O)N(C)[C@H](C)CC(=O)N(C)[C@@H](CC(C)C)C(=O)N[C@@H]([C@@H](C)CC)C(=O)N[C@@H](C)C(=O)N3CC[C@H]3C(=O)N(CC)[C@@H](Cc3ccc(C(F)(F)F)cc3)C(=O)N(C)CC(=O)N[C@@H](CCc3ccc(C(F)(F)F)c(Cl)c3)C(=O)N2C1 [Compound 743] (cyclo(A[Aze][NEtPhe(4-CF3)][Sar][hPhe(3-Cl-4-CF3)][Hyp](Et)[Ac4c][NMeChg][NMedβ3hAla][NMeL]I))  40 nM
6. CC[C@H](C)[C@@H]1NC(=O)[C@H](CC2CCCC2)N(C)C(=O)C[C@@H](C(=O)N2CCCCC2)N(C)C(=O)[C@H](C(C)C)N(C)C(=O)C2(CCCC2)NC(=O)[C@@H]2CCCN2C(=O)[C@H](CCc2ccc(C(F)(F)F)c(Cl)c2)NC(=O)CN(C)C(=O)[C@H](CC2CCCCC2)N(C)C(=O)[C@@H]2CCN2C(=O)[C@H](C)N(C)C1=O [Compound 37] ([NMeAla(cPent)]I[NMeA][Aze][NMeCha][Sar][hPhe(3-Cl-4-CF3)]P[Ac5c][NMeV][NMeD]-Piperidide; lactam N-11)  17 nM
7. CCCC[C@H]1C(=O)N(C)[C@H](C(=O)N2CCCCC2)CC(=O)N(C)[C@@H](CC(C)C)C(=O)N[C@@H]([C@@H](C)CC)C(=O)N(C)[C@@H](C)C(=O)N2CC[C@H]2C(=O)N(C)[C@@H](CC2CCCCC2)C(=O)N(C)CC(=O)N[C@@H](CCc2ccc(C(F)(F)F)c(Cl)c2)C(=O)N2CCC[C@H]2C(=O)NC2(CCCC2)C(=O)N1C [Compound 1859] ([NMeL]I[NMeA][Aze][NMeCha][Sar][hPhe(3-Cl-4-CF3)]P[Ac5c][NMeNle][NMeD]-Piperidide; lactam N-11)  15 nM
8. CC[C@H](C)[C@@H]1NC(=O)[C@H](CC)N(C)C(=O)C[C@@H](C(=O)N2CCCCC2)N(C)C(=O)[C@H](C(C)C)N(C)C(=O)C2(CCCC2)NC(=O)[C@@H]2CCCN2C(=O)[C@H](CCc2ccc(C(F)(F)F)c(Cl)c2)NC(=O)CN(C)C(=O)[C@H](CC2CCCCC2)N(C)C(=O)[C@@H]2CCN2C(=O)[C@H](C)N(C)C1=O [Compound 1638] ([NMeAbu]I[NMeA][Aze][NMeCha][Sar][hPhe(3-Cl-4-CF3)]P[Ac5c][NMeV][NMeD]-Piperidide; lactam N-11)  7.3 nM
9. CC[C@H](C)[C@@H]1NC(=O)[C@H](C)N(C)C(=O)C[C@@H](C)N(C)C(=O)[C@H](C(C)C)N(C)C(=O)C(C)(C)N(C)C(=O)[C@@H]2CCCN2C(=O)[C@H](CCc2ccc(C(F)(F)F)c(Cl)c2)NC(=O)CN(C)C(=O)[C@H](CC2CCCCC2)N(C)C(=O)[C@@H]2CCN2C(=O)[C@H](C)N(C)C1=O [Compound 341] (cyclo([Aze][NMeCha][Sar][hPhe(3-Cl-4-CF3)]P[NMeAib][NMeV][NMedβ3hAla][NMeA]I[NMeA]))  2.9 nM
10. CCO[C@@H]1C[C@H]2C(=O)NC3(CCCC3)C(=O)N(C)[C@@H](CC(C)C)C(=O)N(C)[C@H](C)CC(=O)N(C)[C@@H](CC(C)C)C(=O)N[C@@H]([C@@H](C)CC)C(=O)N(C)CC(=O)N(C)CC(=O)N(C)[C@@H](CC3CCCCC3)C(=O)N(C)CC(=O)N[C@@H](CCc3ccc(C(F)(F)F)c(Cl)c3)C(=O)N2C1 [Compound 1851] (cyclo([Ac5c][NMeL][NMedβ3hAla][NMeL]I[Sar][Sar][NMeCha][Sar][hPhe(3-Cl-4-CF3)][Hyp](Et)))  2.5 nM
11. CC[C@H](C)[C@@H]1NC(=O)[C@H](CC(C)C)N(C)C(=O)C[C@@H](C(=O)N2CCOCC2)N(C)C(=O)[C@H]([C@@H](C)CC)N(C)C(=O)C2(CCCC2)NC(=O)[C@@H]2CCCN2C(=O)[C@H](CCc2ccc(C(F)(F)F)c(F)c2)NC(=O)CN(C)C(=O)[C@H](CC2CCCCC2)N(C)C(=O)[C@@H]2CCN2C(=O)[C@H](C)N(C)C1=O [Compound 790] ([NMeL]I[NMeA][Aze][NMeCha][Sar][hPhe(3-F,4-CF3)]P[Ac5c][NMeI][NMeD]-Morpholide; lactam N-11)  2.5 nM
12. CC[C@H](C)[C@@H]1NC(=O)[C@H](CC(C)C)N(C)C(=O)C[C@@H](C)NC(=O)[C@H](C2CCCC2)N(C)C(=O)C2(CCCC2)NC(=O)[C@@H]2CCCN2C(=O)[C@H](CCc2ccc(C(F)(F)F)c(Cl)c2)NC(=O)CN(C)C(=O)[C@H](Cc2ccc(C)cc2)N(C)C(=O)[C@@H]2CCN2C(=O)[C@H](C)NC1=O [Compound 1331] (cyclo(A[Aze][NMePhe(4-Me)][Sar][hPhe(3-Cl-4-CF3)]P[Ac5c][NMeGly(cPent)][d(β3hA)][NMeL]I))  1.1 nM
13. CC[C@H](C)[C@@H]1NC(=O)[C@H](CC(C)C)N(C)C(=O)C[C@@H](C(=O)N2CCCC2)N(C)C(=O)[C@H](C2CCCCC2)N(C)C(=O)C2(CCCC2)NC(=O)[C@@H]2CCCN2C(=O)[C@H](CCc2ccc(C(F)(F)F)c(Cl)c2)NC(=O)CN(C)C(=O)[C@H](Cc2ccc(C)cc2)N(C)C(=O)[C@@H]2CCN2C(=O)[C@H](C)N(C)C1=O [Compound 1852] ([NMeL]I[NMeA][Aze][NMePhe(4-Me)][Sar][hPhe(3-Cl-4-CF3)]P[Ac5c][NMeChg][NMeD]-Pyrrolidide; lactam N-11)  0.94 nM
